Values quoted from earlier work as cited in patent US12220416B2, “Methylene-tetrahydrofolate reductase isoform-based biomarker and method of use thereof” (RUSH UNIVERSITY MEDICAL CENTER, priority 2017, dated 2025).

Conditions: RA patients on MTX therapy; ADEs provoke discontinuation of MTX therapy; ref [38]

CN(Cc1cnc2nc(N)nc(N)c2n1)c1ccc(C(=O)N[C@@H](CCC(=O)O)C(=O)O)cc1 [MTX, Methotrexate]
RA patients developing MTX-related adverse drug events (ADEs): approximately 30%
